The text below walks through data of EP0104826A2, “Immunomodulator and method of use for immunomodulation” (FUJISAWA PHARMACEUTICAL CO., LTD., priority 1982, dated 1984).

The data set relates to mouse spleen cells. Description: Mitogen (concanavalin A)-induced mouse spleen cell proliferation, 3H-thymidine incorporation; suppression by immunosuppressive factor and restoration. Format: cell-based. As for the experimental part: 1) Preparation of immunosuppressive factor from tumor bearing mice serum.
ICR mice were intraperitonealy inoculated with 0.2 ml of S-180 suspension (5x10^6 cells/ml). S-180 bearing mice were bled from heart under light ether anesthesia with sterile synringe between 7 and 9 days after transplantation and serum was collected.
Immunosuppressive factor was partially purified from the S-180 tumor bearing mice serum according to the method described by SE-KYUNG OH and F.L.MOOLTEN (J. Immunol., 127, 2300-2307, 1981). Briefly, the serum (50 ml) was delipidated with 1/10 vol. of 4% phosphotungstic acid and 1/40 vol of 2M magnesium chloride and centrifuged at 6000 x G for 10 min. Excess phosphotungstic acid and magnesium ion were removed by dialysis against phosphate- buffered saline (PBS: 0.15 M sodium chloride and 0.01 M phosphate buffer, pH 7.4). Then, partially delipidated serum was precipitated with ammonium sulfate at 50% saturation. The supernatant was removed by centrifugation at 20000 x G for 30 min. The precipitates were redissolved in a small volume of water and dialysed against PBS overnight at 4°C. The dialysed solution was chromatographed on Sephadex G-200 column in PBS. Each eluate (15 ml) was assayed for suppressive activity.
Immunosuppressive activity was measured by assay for inhibition of the mitogen-induced mouse spleen cell proliferation.
3) Suppression of mitogen-induced mouse spleen cell proliferation and its restoration by swainsonine in vitro.
Mitogenic activities for mouse spleen cells in vitro : • a) Mice. Female BALB/C strain (8 weeks of age) was used. • b) Tissue culture medium : The tissue culture medium employed was a complete medium designated Roswell Park Memorial Institute(RPMI)-1640. All media employed contained 100 units/ml of penicillin G and 100 µg/ml of streptomycin sulfate and 5% fetal calf serum. • c) Spleen cell preparation : Spleens were removed under sterile conditions and washed with Hanks solution and then teased in the tissue culture medium. The cells were suspended in the tissue culture medium to contain 5 x 10^5 cells/ml. • d) Culture conditions : Into each hole of Microtiteration plate (Falcon No. 3040) were poured 0.1 ml of the above cells suspension and 0.1 ml of the prescribed concentrate of the compound and/or immunosuppressive factor described above. […] The culture was incubated in triplicate at 37°C in a humidified atmosphere (95% air, 5% C02) for 48 hours. • e) Assay for mitogen induced mouse spleen cells proliferation. The mitogen induced mouse spleen cells proliferation was assayed for tritiated thymidine (^3H-thymidine) incorporation. In all tests, 20 pl of 10 micro curie (uCi)/ml of ^3H-thymidine was added to each hole for the 48 hours of culture. After further 24 hours incubation, the culture was terminated.
The resultant cells were filtered with filter paper, Whatman GF83 and washed successively with saline and with 5% trichloroacetic acid. The filter paper was dried and placed in a scintillator(toluene 1 liter containing 0.1 g of p-bis(5-phenyl oxazole)-benzene and 4 g of 2,5-diphenyloxazole), and ^3H-thymidine incorporated into DNA was measured.
(Uptake of a labelled nucleoside into DNA is a usual measure of proliferation.)

Setting [1] is: swainsonine alone added to mouse spleen cell culture.

With `O[C@H]1[C@H]2[C@H](O)CCCN2C[C@H]1O` [Swainsonine], the “Con A induced stimulation of ^3H-thymidine incorporation into mouse spleen cell, increase relative to Con A only” value (Con A and swainsonine added simultaneously) is 10 times. The “^3H-thymidine uptake (cpm)” value is 67,017 cpm (Concanavalin A 0.3 µg/well + swainsonine 0.0002 µg/well); 105,850 cpm (Concanavalin A 0.3 µg/well + swainsonine 0.002 µg/well); 108,748 cpm (Concanavalin A 0.3 µg/well + swainsonine 0.02 µg/well); 118,071 cpm (Concanavalin A 0.3 µg/well + swainsonine 0.2 µg/well); 100,480 cpm (Concanavalin A 0.3 µg/well + swainsonine 2 µg/well); 68,778 cpm (Concanavalin A 0.3 µg/well + swainsonine 20 µg/well). Further, the “^3H-thymidine uptake (cpm)” value by setting is: (Concanavalin A 1 µg/well + Immunosuppressive factor 6 µl/well + swainsonine 0.002 µg/well) 69,313 cpm; (Concanavalin A 1 µg/well + Immunosuppressive factor 6 µl/well + swainsonine 0.02 µg/well) 66,858 cpm; (Concanavalin A 1 µg/well + Immunosuppressive factor 6 µl/well + swainsonine 0.2 µg/well) 70,890 cpm; (Concanavalin A 1 µg/well + Immunosuppressive factor 6 µl/well + swainsonine 2 µg/well) 53,500 cpm; (Concanavalin A 1 µg/well + Immunosuppressive factor 6 µl/well + swainsonine 20 µg/well) 37,746 cpm; (Swainsonine alone, 0.0002 µg/well) 1,311 cpm. Further, the “^3H-thymidine uptake (cpm)” value was 1,598 cpm (Swainsonine alone, 0.002 µg/well); 1,712 cpm (Swainsonine alone, 0.02 µg/well); 1,734 cpm (Swainsonine alone, 0.2 µg/well); 1,726 cpm (Swainsonine alone, 2 µg/well); 1,260 cpm (Swainsonine alone, 20 µg/well). Also, the “suppression of mitogenic response by immunosuppressive factor” value (swainsonine added to culture containing immunosuppressive factor) is “prevented the suppression”. For the same compound, the “mitogenic activity of mouse spleen cell” value under setting [1] is recorded as “did not affected”. Moreover, the spleen cell viability result under setting [1] is reported as “did not affected”.
